We go through 20 molecules from patent publication US12545640B2, “Substituted 6,7-dihydro-5H-benzo[7]annulene compounds, processes for their preparation and therapeutic uses thereof” (SANOFI, priority 2019, dated 2026).

The first experiment addresses T1, ERα (Homo sapiens, UniProt P03372).
T1 construct: host or cells: MCF7 cells
T1 sequence (P03372 1-595): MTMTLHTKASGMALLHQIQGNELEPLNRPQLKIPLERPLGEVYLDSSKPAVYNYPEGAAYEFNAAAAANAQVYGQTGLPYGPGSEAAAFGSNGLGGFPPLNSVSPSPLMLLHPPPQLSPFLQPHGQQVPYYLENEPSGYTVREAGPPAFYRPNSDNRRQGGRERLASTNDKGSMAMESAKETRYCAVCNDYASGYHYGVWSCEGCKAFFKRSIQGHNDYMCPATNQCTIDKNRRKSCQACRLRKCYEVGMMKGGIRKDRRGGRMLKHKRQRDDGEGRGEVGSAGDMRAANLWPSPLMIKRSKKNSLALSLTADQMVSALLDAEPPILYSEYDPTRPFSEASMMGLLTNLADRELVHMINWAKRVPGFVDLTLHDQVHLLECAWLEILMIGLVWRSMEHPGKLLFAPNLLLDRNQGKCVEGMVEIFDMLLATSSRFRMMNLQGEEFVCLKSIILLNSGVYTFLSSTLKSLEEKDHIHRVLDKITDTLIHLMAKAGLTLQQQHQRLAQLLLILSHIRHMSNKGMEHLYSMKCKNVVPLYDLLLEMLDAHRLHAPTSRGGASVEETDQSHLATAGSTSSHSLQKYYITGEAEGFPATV
The experiment in a line: Estrogen receptor degradation activity: breast cancer cell ERα in cell western assay (MCF7 cells). It counts as cell-based. The following applies: 4 hours, final concentrations ranging from 0.3-0.0000018 μM, relative to fulvestrant 0.1 μM positive control. The protocol: Test: Estrogen Receptor Degradation Activity
Said test involves measuring the in vitro degradation activity of the compounds of the invention.
The measurements of the degradation activities were made using a breast cancer cell ERα in cell western assay as described hereunder.
MCF7 cells (ATCC) were seeded in 384 wells microplate (collagen coated) at a concentration of 10000 cells/30 μL, per well in red phenol free MEM alpha medium (invitrogen) containing 5% charcoal dextran striped FBS. The following day, 9 points serial 1:5 dilution of each compound was added to the cells in 2.5 μL at final concentrations ranging either from 3-0.000018 μM (column «% Degradation at 3 μM in table 2) or from 0.3-0.0000018 μM (column «% Degradation at 0.3 μM in table 2), or 0.1 μM for fulvestrant (using as positive control). At 4 hours post compound addition the cells were fixed by adding 25 μL of formalin (final concentration 5% formalin containing 0.1% triton) for 10 minutes at room temperature and then washed twice with PBS. Then, 50 μL of LI-COR blocking buffer containing 0.1% Triton was added to plate for 30 minutes at room temperature. LI-COR blocking buffer was removed and cells were incubated overnight at cold room with 50 μL anti-ER rabbit monoclonal antibody (Thermo scientific MA1-39540) diluted at 1:1000 in LI-COR blocking buffer containing 0.1% tween-20. Wells which were treated with blocking buffer but no antibody were used as background control. Wells were washed twice with PBS (0.1% tween-20) and incubated at 37° C. for 60 minutes in LI-COR (0.1% tween-20) containing goat anti-rabbit antibody Alexa 488 (1:1000) and Syto-64 a DNA dye ([…]). Cells were then washed 3 times in PBS and scanned in ACUMEN explorer (TTP-Labtech). Integrated intensities in the green fluorescence and red fluorescence were measured to determine the levels of ERα and DNA respectively.
For the molecule `CC1(C(=O)Nc2ccc3c(c2)CCCC(c2ccc(Cl)cc2Cl)=C3c2ccc(O[C@H]3CCN(CCCF)C3)cc2)CC1` [Example 67, (S)—N-(8-(2,4-dichlorophenyl)-9-(4-((1-(3-fluoropropyl)pyrrolidin-3-yl)oxy)phenyl)-6,7-dihydro-5H-benzo[7]annulen-3-yl)-1-methylcyclopropane-1-carboxamide], the “% Degradation At 0.3 μM” value came to 79%.
Still for that read-out and setting: the value for `O=C(NC1COC1)c1ccc2c(c1)CCCC(c1ccc(Cl)cc1Cl)=C2c1ccc(O[C@H]2CCN(CCCF)C2)cc1` [Example 75, (S)-8-(2,4-dichlorophenyl)-9-(4-((1-(3-fluoropropyl)pyrrolidin-3-yl)oxy)phenyl)-N-(oxetan-3-yl)-6,7-dihydro-5H-benzo[7]annulene-3-carboxamide] was 71%; that for `CC(C)(C)OC(=O)Nc1ccc2c(c1)CCCC(c1ccccc1)=C2c1ccc(O[C@H]2CCN(CCCF)C2)cc1` [Example 71, tert-butyl (S)-(9-(4-((1-(3-fluoropropyl)pyrrolidin-3-yl)oxy)phenyl)-8-phenyl-6,7-dihydro-5H-benzo[7]annulen-3-yl)carbamate] was 91%.
For `OC(c1ccc2c(c1)CCCC(c1cccc(F)c1Cl)=C2c1ccc(O[C@H]2CCN(CCCF)C2)cc1)C(F)(F)F` (stereo partly drawn) [Example 65, 1-(8-(2-chloro-3-fluorophenyl)-9-(4-(((S)-1-(3-fluoropropyl)pyrrolidin-3-yl)oxy)phenyl)-6,7-dihydro-5H-benzo[7]annulen-3-yl)-2,2,2-trifluoroethan-1-ol], the “% Degradation At 0.3 μM” value came to 90%.
The same measure, in the same setting: under `COC(=O)c1ccccc1-c1ccc2c(c1)CCCC(c1ccc(Cl)cc1Cl)=C2c1ccc(O[C@H]2CCN(CCCF)C2)cc1` [Example 83, methyl (S)-2-(8-(2,4-dichlorophenyl)-9-(4-((1-(3-fluoropropyl)pyrrolidin-3-yl)oxy)phenyl)-6,7-dihydro-5H-benzo[7]annulen-3-yl)benzoate] stands 63%.
Still for that read-out and setting: the value for `CC(C)(C)C(=O)Nc1ccc2c(c1)CCCC(c1ccc(Cl)cc1Cl)=C2c1ccc(O[C@H]2CCN(CCCF)C2)cc1` [Example 62, (S)—N-(8-(2,4-dichlorophenyl)-9-(4-((1-(3-fluoropropyl)pyrrolidin-3-yl)oxy)phenyl)-6,7-dihydro-5H-benzo[7]annulen-3-yl)pivalamide] was 68%.

Still in this experiment, the particulars now being: 4 hours, final concentrations ranging from 3-0.000018 μM, relative to fulvestrant 0.1 μM positive control.
As to `NC(=O)NNC(=O)c1ccc2c(c1)CCCC(c1ccc(Cl)cc1Cl)=C2c1ccc(O[C@H]2CCN(CCCF)C2)cc1` [Example 14, (S)-2-(8-(2,4-dichlorophenyl)-9-(4-((1-(3-fluoropropyl)pyrrolidin-3-yl)oxy)phenyl)-6,7-dihydro-5H-benzo[7]annulene-3-carbonyl)hydrazine-1-carboxamide], the “% Degradation At 3 μM” value is 90%.
On the same count and under the same terms, under `NNC(=O)c1ccc2c(c1)CCCC(c1ccc(Cl)cc1Cl)=C2c1ccc(O[C@H]2CCN(CCCF)C2)cc1` [Example 6, (S)-8-(2,4-dichlorophenyl)-9-(4-((1-(3-fluoropropyl)pyrrolidin-3-yl)oxy)phenyl)-6,7-dihydro-5H-benzo[7]annulene-3-carbohydrazide] stands 88%.
Still for that read-out and setting: under `O=c1[nH]c(-c2ccc3c(c2)CCCC(c2ccc(Cl)cc2Cl)=C3c2ccc(O[C@H]3CCN(CCCF)C3)cc2)ns1` [Example 37, (S)-3-(8-(2,4-dichlorophenyl)-9-(4-((1-(3-fluoropropyl)pyrrolidin-3-yl)oxy)phenyl)-6,7-dihydro-5H-benzo[7]annulen-3-yl)-1,2,4-thiadiazol-5(4H)-one] stands 98%.
Take `OC(c1ccc2c(c1)CCCC(c1ccc(Cl)cc1Cl)=C2c1ccc(O[C@H]2CCN(CCCF)C2)cc1)C(F)(F)F` (stereo partly drawn) [Example 10, 1-(8-(2,4-dichlorophenyl)-9-(4-(((S)-1-(3-fluoropropyl)pyrrolidin-3-yl)oxy)phenyl)-6,7-dihydro-5H-benzo[7]annulen-3-yl)-2,2,2-trifluoroethan-1-ol]: the “% Degradation At 3 μM” value is 92%.
The same measure, in the same setting: the value for `O=C(O)Cc1ccc2c(c1)CCCC(c1ccc(Cl)cc1Cl)=C2c1ccc(O[C@H]2CCN(CCCF)C2)cc1` [Example 93, (S)-2-(8-(2,4-dichlorophenyl)-9-(4-((1-(3-fluoropropyl)pyrrolidin-3-yl)oxy)phenyl)-6,7-dihydro-5H-benzo[7]annulen-3-yl)acetic acid] was 84%.
Still for that read-out and setting: under `CS(=O)(=O)Nc1ccc2c(c1)CCCC(c1ccc(Cl)cc1Cl)=C2c1ccc(O[C@H]2CCN(CCCF)C2)cc1` [Example 30, (S)—N-(8-(2,4-dichlorophenyl)-9-(4-((1-(3-fluoropropyl)pyrrolidin-3-yl)oxy)phenyl)-6,7-dihydro-5H-benzo[7]annulen-3-yl)methane sulfonamide] stands 70%; under `CC1(C)OB(c2ccc3c(c2)CCCC(c2ccc(Cl)cc2Cl)=C3c2ccc(O[C@H]3CCN(CCCF)C3)cc2)OC1(C)C` [Example 1, (S)-3-(4-(8-(2,4-dichlorophenyl)-3-(4,4,5,5-tetramethyl-1,3,2-dioxaborolan-2-yl)-6,7-dihydro-5H-benzo[7]annulen-9-yl)phenoxy)-1-(3-fluoropropyl)pyrrolidine], 86%.
The same measure, in the same setting: under `O=S(=O)(Nc1ccc2c(c1)CCCC(c1ccc(Cl)cc1Cl)=C2c1ccc(O[C@H]2CCN(CCCF)C2)cc1)C(F)(F)F` [Example 35, (S)—N-(8-(2,4-dichlorophenyl)-9-(4-((1-(3-fluoropropyl)pyrrolidin-3-yl)oxy)phenyl)-6,7-dihydro-5H-benzo[7]annulen-3-yl)-1,1,1-trifluoromethanesulfonamide] stands 52%.
As for `O=C(O)/C=C/c1ccc2c(c1)CCCC(c1ccc(Cl)cc1Cl)=C2c1ccc(O[C@H]2CCN(CCCF)C2)cc1` [Example 20, (S,E)-3-(8-(2,4-dichlorophenyl)-9-(4-((1-(3-fluoropropyl)pyrrolidin-3-yl)oxy)phenyl)-6,7-dihydro-5H-benzo[7]annulen-3-yl)acrylic acid], the “% Degradation At 3 μM” value is reported as 85%.
The same measure, in the same setting: under `O=c1[nH]nc(-c2ccc3c(c2)CCCC(c2ccc(Cl)cc2Cl)=C3c2ccc(O[C@H]3CCN(CCCF)C3)cc2)o1` [Example 31, (S)-5-(8-(2,4-dichlorophenyl)-9-(4-((1-(3-fluoropropyl)pyrrolidin-3-yl)oxy)phenyl)-6,7-dihydro-5H-benzo[7]annulen-3-yl)-1,3,4-oxadiazol-2(3H)-one] stands 95%.
On the same count and under the same terms, under `CONC(=O)c1ccc2c(c1)CCCC(c1ccc(Cl)cc1Cl)=C2c1ccc(O[C@H]2CCN(CCCF)C2)cc1` [Example 19, (S)-8-(2,4-dichlorophenyl)-9-(4-((1-(3-fluoropropyl)pyrrolidin-3-yl)oxy)phenyl)-N-methoxy-6,7-dihydro-5H-benzo[7]annulene-3-carboxamide] stands 86%; under `NC(=O)c1ccc2c(c1)CCCC(c1ccc(Cl)cc1Cl)=C2c1ccc(O[C@H]2CCN(CCCF)C2)cc1` [Example 3, (S)-8-(2,4-dichlorophenyl)-9-(4-((1-(3-fluoropropyl)pyrrolidin-3-yl)oxy)phenyl)-6,7-dihydro-5H-benzo[7]annulene-3-carboxamide], 95%; under `O=C(NO)c1ccc2c(c1)CCCC(c1ccc(Cl)cc1Cl)=C2c1ccc(O[C@H]2CCN(CCCF)C2)cc1` [Example 18, (S)-8-(2,4-dichlorophenyl)-9-(4-((1-(3-fluoropropyl)pyrrolidin-3-yl)oxy)phenyl)-N-hydroxy-6,7-dihydro-5H-benzo[7]annulene-3-carboxamide], 85%.
The same measure, in the same setting: under `O=C1NC(=O)C(c2ccc3c(c2)CCCC(c2ccc(Cl)cc2Cl)=C3c2ccc(O[C@H]3CCN(CCCF)C3)cc2)N1` (stereo partly drawn) [Example 43, 5-(8-(2,4-dichlorophenyl)-9-(4-(((S)-1-(3-fluoropropyl)pyrrolidin-3-yl)oxy)phenyl)-6,7-dihydro-5H-benzo[7]annulen-3-yl)imidazolidine-2,4-dione] stands 95%.
